Values quoted from earlier work in patent US20110015154A1, “SUPPORTING ACETYLCHOLINE FUNCTION” (priority 2009, published 2011).

Key:
[1] = in vivo
M1 receptors = settings: adult rats
M2 receptors = settings: adult rats
[2] = supplementation
cells = settings: against hydrogen peroxide, beta-amyloid protein, glutamate, ischemia, staurosporine-induced cytotoxicity, and apoptosis
[3] = system: nuclear factor-kappa B (NFκB); settings: after 14 days of administration

C[N+](C)(C)CCOP(=O)([O-])OC[C@H](O)CO [α-GPC, Alpha-glycerylphosphorylcholine]
blood-brain barrier passage [1]: can cross the blood-brain barrier
metabolism [1]: rapidly metabolized into choline and glycerophosphate
effect on M1 receptors (M1 receptors): countered the loss of M1 receptors
effect on M2 receptors (M2 receptors): no effect

CC(=O)O[C@H](CC(=O)[O-])C[N+](C)(C)C [acetyl-L-carnitine]
pain in patients with diabetic peripheral neuropathy [2]: reduce pain

C/C=C1\[C@H]2C=C(C)C[C@]1(N)c1ccc(=O)[nH]c1C2 [huperzine A, Huperzine A]
cell protection (cells): protects cells
activation of glial cells in an ischemic event [3]: reduced
nuclear translocation of transcription factor NFκB [3]: inhibited
overexpression of pro-inflammatory mediators in an immune challenge [3]: decreased
